Laboratory results: US6482609B1, “Isolated human EDG-4 receptor and polynucletide encoding said receptor” (priority 1997, dated 2002)
“Also recorded” adds a separate entry of the source.

What was measured:
[1] = system: 293-EBNA cells transfected with empty expression vector pcDNA3; assay: SRE luciferase reporter in 293-EBNA cells, empty vector pcDNA3; assay type: cell-based
Description: NE-κB activates gene expression by binding to specific DNA sequences found in the promoters of genes regulated by this inflammation-related transcription factor. […] The SRE reporter was identical to the NF-κB reporter, except that the NF-κB binding sites were replaced with 2 SRE sites. The new reporter was called 2XSREtk-p4Luc-zeo.
The protocol described in Example 11 for Assay 1 was followed except for the following changes:
(§1) 2) SRE Cotransfection: 0.5 μg of 2XSREtk-p4Luc-zeo reporter DNA and 3.5 μg pcDNA3, EDG-1, EDG-3 (pC3-hE3HP2, different from the clone used in Assay 2 of Example 11) or the newly cloned human EDG-4 (pC3-hedg4#36); NF-κB Cotransfection: 2 μg 6XNFκBtk-p4Luc-zeo reporter DNA and 2.0 μg pcDNA3, EDG-1, EDG-3 (pC3-hE3HP2), or EDG-4 (pC3-hedg4#36). Expression plasmid and reporter plasmid DNA samples were combined and diluted in 750 μl of DMEM/F12 (serum free media) and 20 μl Plus Reagent (Lipofectamine Plus Kit, Life Technologies Cat. 10964-013), and incubated at room temperature for 15 min.
(§2) 1) Media was removed and cells treated with compounds diluted in DMEM/F12 media.
(§3) 2) The cells were treated for 6 hours.
Transfection was accomplished using the Lipofectamine Plus kit (Life Technologies, Cat. 10964-013), using the manufacturer's recommended conditions.
(§4) 293-EBNA cells were grown, lipofected in monolayer cultures, and pretreated as described above for Example 11, assay #1, except that NF-κB and AP-1 reporter-transfected cells were pretreated for 6 hr in medium containing 0.5% FBS, then treated overnight in the same medium with or without 10 μM LPA.

HL-60 cells = assay: IL-8 ELISA on HL-60 cells; assay type: cell-based, human; settings: 1, 6 or 24 hr, S1P or LPA up to 3 μM, TNF-α 10 ng/ml
Description: Procedure for HL-60 Cells:
Cells: HL-60 (promyelocytic, human) suspension cells
Media: RPMI 1640 medium with 2 mM L-glutamine adjusted to contain 4.5 g/L glucose, 10 mM HEPES, and 1.0 mM sodium pyruvate+10% FBS
1) Cells were plated at a density of 0.25×10^6 cells/ml.
2) Cell pellcts were resuspended in 0.5% FBS media at a density of approximately 1×10^6 cells/ml.
1) Made up all required solutions in 0.5% FBS media (control).
2) 1.4 ml appropriate treatments were added to each well of a 6-well plate.
5) 100 μl cell suspension was added to each well.
7) After the specified time cell supematants were collected into 1.5 ml eppendorf tubes, spun down at 14000 rpm for 5 minutes and stored at −20° C.
D. Refer to Procedure #1 For HeLa Cells (D).

human EDG-3 = molecular target: T1, human EDG-3 (Homo sapiens, UniProt Q99500); assay: SRE luciferase reporter in 293-EBNA cells, EDG-3; assay type: cell-based; settings: EDG-3 clone pC3-E3HP2; 3 μM; 6 hours
T1 construct: expressed in transfected cells; host or cells: 293-EBNA
T1 sequence (Q99500 whole entry): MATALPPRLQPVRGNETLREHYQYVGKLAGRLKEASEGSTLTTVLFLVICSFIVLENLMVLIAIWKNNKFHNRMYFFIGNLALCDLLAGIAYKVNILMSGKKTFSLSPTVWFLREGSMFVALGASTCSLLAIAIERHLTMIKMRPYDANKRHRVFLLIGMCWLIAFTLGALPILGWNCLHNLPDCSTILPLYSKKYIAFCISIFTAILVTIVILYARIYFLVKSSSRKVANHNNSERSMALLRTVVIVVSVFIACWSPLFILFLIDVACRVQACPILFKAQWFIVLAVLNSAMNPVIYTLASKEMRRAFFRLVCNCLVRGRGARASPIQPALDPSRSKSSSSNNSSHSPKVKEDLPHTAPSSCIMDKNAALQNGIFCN
Description: NE-κB activates gene expression by binding to specific DNA sequences found in the promoters of genes regulated by this inflammation-related transcription factor. […] Transient Transfection Protocol for 293-EBNA (Assay 3): The protocol described in Example 11 for Assay 1 was followed except for the following changes: […] 3) 30 μl Lipofectamine Reagent (Lipofectamine Plus Kit) was diluted in 750 μl DMEM/F12. The diluted Lipofectamine was then combined with the DNA/Plus mixture and incubated at room temperature for 15 min. […] 2) Transfected cells were harvested by trypsinization and 50,000 cells per well were plated in 96-well Blackview plates coated with poly D-lysine (Becton Dickinson Labware, Cat. 40640). No cells were plated in the outside wells of the 96-well plate. […] The following treatments were used for all transfections: […] 2) The cells were treated for 6 hours. 3) Luciferase assay was performed.

EDG-1 = EDG-1 (Homo sapiens, UniProt P21453); assay: Calcium microfluorimetry (fura-2) in 293-EBNA cells, EDG-1; assay type: cell-based; settings: 2 and 10 μM, preliminary data
Chain of EDG-1 (P21453 whole entry, the tested form may be a part): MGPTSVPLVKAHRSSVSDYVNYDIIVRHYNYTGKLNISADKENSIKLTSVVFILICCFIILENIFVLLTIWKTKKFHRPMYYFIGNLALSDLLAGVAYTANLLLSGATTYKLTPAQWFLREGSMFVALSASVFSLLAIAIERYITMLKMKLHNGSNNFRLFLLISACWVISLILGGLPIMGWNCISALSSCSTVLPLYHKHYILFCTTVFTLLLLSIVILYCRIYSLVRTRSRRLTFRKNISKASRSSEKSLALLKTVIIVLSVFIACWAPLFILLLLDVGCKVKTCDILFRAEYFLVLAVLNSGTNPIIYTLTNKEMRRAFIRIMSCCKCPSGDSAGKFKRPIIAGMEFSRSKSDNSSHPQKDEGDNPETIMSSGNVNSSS
Description: (§5) Transfections were carried out with EDG receptors in 293-EBNA cells as described above, except that no reporter gene vector was included in the DNA mix. Two days after transfection, cells were harvested by trypsinization and plated at a density of 200,000 cells onto poly-D-lysine-coated coverslips in 100 μl of medium containing 0.5% FBS. After briefly allowing cell attachment to take place, 2 ml of medium without FBS was added and the cells were incubated overnight. The next day, cells were loaded with 5 μM fura-2 AM ester (Molecular Probes) for 60 min at RT, then washed and used for calcium microfluorimetry. […] Treatments were applied using a gravity-fed perfusion apparatus. Fluorescence emission was continuously monitored and recorded with PTI 2.060a software and analyzed with Sigma Plot software. Intracellular calcium concentrations were calculated by interpolation on a ratiometric fluorescence curve generated from fura-2 fluorescence in a calcium dilution series.

EDG-7 [2] = assay: Calcium microfluorimetry in 293-EBNA cells, EDG-7; assay type: cell-based; settings: 2 and 10 μM, preliminary data
Description: as §5

[3] = system: 293-EBNA cells transfected with empty expression vector pcDNA3; assay: NF-κB luciferase reporter in 293-EBNA cells, empty vector pcDNA3; assay type: cell-based; settings: for NF-κB reporter response in control cells: pcDNA3-transfected 293-EBNA; for NF-κB reporter induction in control cells: pcDNA3, 3 μM, 6 hours, Assay #3
Description: Monolayer Transient Transfection Protocol for 293-EBNA
2) 6.6 μg NF-κB-tk-p4Luc reporter DNA and 6.6 μg of pC3-redg4 (expressing rat EDG-4), or pcDNA3 DNA was diluted in 500 μl OPTI-MEM (Gibco; Cat. 31985-062)
2) After 6 hrs, media was removed and cells treated with compounds diluted in 0.5% FBS media (140 μl added to each well).
3) Cells were treated for 24 hrs.
1) Luclite kit (Packard; Cat. 6016911) was used for luciferase assay. All reagents were brought to room temperature before use.
7) After incubation, plates were counted in a 12-detector Packard Top Count on a program without dark delay.
The above protocol for assay 1 was followed except for the following changes:
2) 3 μg NFκB-tk-p4Luc reporter DNA and 3 μg pC3-hedg1, pC3-hedg3, pC3-redg4, pC3-hedg5 or pcDNA3 DNA was diluted in 240 μl OPTI-MEM (Gibco; Cat. 31985-062)
as §1, §2, §3, §4

EDG-7 [4] = assay: NF-κB reporter, EDG-7; assay type: cell-based
rat edg4 = rat edg4 (Rattus norvegicus, UniProt P47752); assay: SRE luciferase reporter in 293-EBNA cells, rat EDG-4; assay type: cell-based; design: expressed in transfected cells; host or cells: 293-EBNA; settings: 3 μM SPC, 6 hr
Chain of rat edg4 (P47752 whole entry): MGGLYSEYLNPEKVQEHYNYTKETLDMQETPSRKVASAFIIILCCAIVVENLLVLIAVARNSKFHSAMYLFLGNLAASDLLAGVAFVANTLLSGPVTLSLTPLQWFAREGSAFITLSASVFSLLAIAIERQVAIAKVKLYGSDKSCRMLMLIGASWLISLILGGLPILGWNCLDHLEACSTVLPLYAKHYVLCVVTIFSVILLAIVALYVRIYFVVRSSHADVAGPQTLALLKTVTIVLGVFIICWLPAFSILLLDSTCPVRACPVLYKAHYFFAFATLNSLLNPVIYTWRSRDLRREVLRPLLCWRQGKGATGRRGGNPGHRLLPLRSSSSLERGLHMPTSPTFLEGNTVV
Description: Transfection was accomplished using the Lipofectamine Plus kit (Life Technologies, Cat. 10964-013), using the manufacturer's recommended conditions. Optimal SRE induction was seen when cells were seeded so as to become 100% confluent at the time of treatment, 72-96 hr after transfection.

[5] = Assay #2, S1P, SPC 3 μM, 20% FBS

| Structure (SMILES) | SRE response in control cotransfection ([1]; 3 μM, 6 hours, Assay #3) | IL-8 release (HL-60 cells) | SRE response (human EDG-3) | Qualitative calcium response (EDG-1) | Qualitative calcium response (EDG-7 [2]) | NF-κB reporter response in control cells ([3]; Assay #1) | NF-κB reporter response in control cells [3, 5] | NF-κB reporter induction in control cells [3] | NF-κB reporter signaling (EDG-7 [4]) | Induction of the SRE reporter, control ([1]; 3 μM SPC, 6 hr, Example 15A) | Induction of luciferase activity (SRE reporter) (rat edg4) |
| --- | --- | --- | --- | --- | --- | --- | --- | --- | --- | --- | --- |
| CCCCCCCCCCCCC/C=C/[C@@H](O)[C@@H](N)COP(=O)(O)O [S1P, sphingosine-1-phosphate] | about 1.5 fold | no such release; also recorded: fail to produce IL-8 | 12 fold | None within 20 min | None within 20 min | No increase in luciferase activity | No response | No such induction | fail to signal through NF-κB reporters |  |  |
| CCCCCCCCCCCCC/C=C/[C@@H](O)[C@@H](N)COP(=O)([O-])OCC[N+](C)(C)C [SPC, sphingosylphosphorylcholine] |  |  | 11 fold |  |  |  | No response | No such induction |  | about 2.5 fold | 35.6 fold |
